Source: publication PMC9781101, “A High-Throughput Fluorescence Polarization-Based Assay for the SH2 Domain of STAT4” (Methods and Protocols, 2022)
Like-named read-outs stand apart in the source and are kept apart here. Non-standard residues stand in square brackets, D forms with d. Residues, ends and D or L forms follow the SMILES beside them. No end group written: not given here. *: point of attachment. 5FAM = O=C1OC2(c3ccc(O)cc3Oc3cc(O)ccc32)c2ccc(C(=O)*)cc21; pY = N[C@@H](Cc1ccc(OP(=O)(O)O)cc1)C(=O)O

Experiments:
[1] = target: T1, STAT4 SH2 domain (human STAT4 amino acids 136 to 705) (Homo sapiens, UniProt Q14765); assay: Fluorescence polarization direct binding assay, labelled phosphopeptides to truncated STAT4; conditions: for fold lower affinity for STAT4 than 5-CF-GpYLPQNID: ratio of Kd values
T1 sequence (Q14765 136-705): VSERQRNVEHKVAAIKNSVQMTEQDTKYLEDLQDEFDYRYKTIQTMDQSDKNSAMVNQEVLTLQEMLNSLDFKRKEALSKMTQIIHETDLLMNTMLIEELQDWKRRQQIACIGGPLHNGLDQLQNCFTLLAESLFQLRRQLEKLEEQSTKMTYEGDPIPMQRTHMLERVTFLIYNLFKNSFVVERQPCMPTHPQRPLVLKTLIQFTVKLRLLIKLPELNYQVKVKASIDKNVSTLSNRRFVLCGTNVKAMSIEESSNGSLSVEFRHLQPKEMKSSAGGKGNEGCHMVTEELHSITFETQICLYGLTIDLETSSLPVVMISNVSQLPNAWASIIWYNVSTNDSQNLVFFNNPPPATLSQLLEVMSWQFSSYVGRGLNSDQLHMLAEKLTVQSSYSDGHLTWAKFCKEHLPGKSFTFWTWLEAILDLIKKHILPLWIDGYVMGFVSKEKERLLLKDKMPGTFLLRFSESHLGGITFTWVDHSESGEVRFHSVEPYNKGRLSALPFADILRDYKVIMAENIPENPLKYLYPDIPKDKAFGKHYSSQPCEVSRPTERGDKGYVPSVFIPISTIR
Method: (§1) Binding of fluorescent-labelled peptides to the truncated STAT4 protein was analysed using an Infinite F500 plate reader (Tecan) as previously published for STAT5b [12]. Unless otherwise stated, FP assays were performed in a buffer consisting of 10 mM Tris/HCl, 50 mM NaCl, 1 mM EDTA, 0.1% (v/v) NP-40 substitute, 2% (v/v) DMSO and 1 mM DTT at a pH of 8.0. All steps were carried out at room temperature. For the binding assays shown in Figure 1, Figure 2 and Figure 3, the prediluted STAT4 protein was incubated for 1 h before addition of the fluorophore-labelled peptide, to mimic the incubation period with test compounds. For the inhibition assay shown in Figure 4, STAT4 was incubated with unlabelled peptide for 1 h before addition of the fluorophore-labelled peptide (final STAT4 concentration: 33 nM). Fluorescence polarization was read 1 h after addition of the labelled peptide, in non-treated black 384-well microplates (Corning). Fluorescent-labelled peptides were used at a final concentration of 10 nM unless otherwise stated. Binding and inhibition curves were plotted using OriginPro 2019 software (OriginLab). Fluorescence polarization values were normalized by subtracting the FP values of the wells containing the fluorophore-labelled peptides only. […] IC50 values from three independent experiments were used to calculate an average value and the corresponding standard deviation. IC50 values were converted to inhibition constants (Ki) using the published equation [20], with average values calculated as for IC50 values.

STAT4 R598A = conditions: FP, Figure 1b, compared with STAT4 wild-type
Method: Binding of fluorescent-labelled peptides to the truncated STAT4 protein was analysed using an Infinite F500 plate reader (Tecan) as previously published for STAT5b [12]. Unless otherwise stated, FP assays were performed in a buffer consisting of 10 mM Tris/HCl, 50 mM NaCl, 1 mM EDTA, 0.1% (v/v) NP-40 substitute, 2% (v/v) DMSO and 1 mM DTT at a pH of 8.0. All steps were carried out at room temperature. For the binding assays shown in Figure 1, Figure 2 and Figure 3, the prediluted STAT4 protein was incubated for 1 h before addition of the fluorophore-labelled peptide, to mimic the incubation period with test compounds. For the inhibition assay shown in Figure 4, STAT4 was incubated with unlabelled peptide for 1 h before addition of the fluorophore-labelled peptide (final STAT4 concentration: 33 nM). Fluorescence polarization was read 1 h after addition of the labelled peptide, in non-treated black 384-well microplates (Corning). Fluorescent-labelled peptides were used at a final concentration of 10 nM unless otherwise stated. […] Fluorescence polarization values were normalized by subtracting the FP values of the wells containing the fluorophore-labelled peptides only. […] IC50 values were converted to inhibition constants (Ki) using the published equation [20], with average values calculated as for IC50 values.

[2] = target: STAT3 (amino acids 127 to 722) (Mus musculus, UniProt P42227); assay: Fluorescence polarization direct binding assay, STAT3; design: species or system murine
Chain of STAT3 (amino acids 127 to 722) (P42227 127-722): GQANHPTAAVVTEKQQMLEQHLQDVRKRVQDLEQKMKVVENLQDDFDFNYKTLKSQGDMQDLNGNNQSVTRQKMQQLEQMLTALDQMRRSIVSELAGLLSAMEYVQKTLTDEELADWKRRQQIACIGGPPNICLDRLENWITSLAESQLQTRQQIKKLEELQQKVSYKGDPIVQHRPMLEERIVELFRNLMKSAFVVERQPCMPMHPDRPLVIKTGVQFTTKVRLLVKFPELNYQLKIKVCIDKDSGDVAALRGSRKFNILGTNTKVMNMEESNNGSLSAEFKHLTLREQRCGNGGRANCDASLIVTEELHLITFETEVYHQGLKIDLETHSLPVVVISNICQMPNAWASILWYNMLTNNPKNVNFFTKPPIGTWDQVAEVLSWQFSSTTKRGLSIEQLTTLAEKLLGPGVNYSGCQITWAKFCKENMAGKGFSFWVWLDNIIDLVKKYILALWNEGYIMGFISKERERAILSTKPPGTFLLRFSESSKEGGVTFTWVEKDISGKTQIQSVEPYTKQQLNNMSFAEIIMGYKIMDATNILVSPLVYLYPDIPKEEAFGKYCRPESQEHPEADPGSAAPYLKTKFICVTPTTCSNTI

[3] = target: T2, STAT6 (amino acids 110 to 651) (Homo sapiens, UniProt P42226); assay: Fluorescence polarization direct binding assay, STAT6; conditions: FP, 10 nM labelled peptide; Figure S1
T2 sequence (P42226 110-651): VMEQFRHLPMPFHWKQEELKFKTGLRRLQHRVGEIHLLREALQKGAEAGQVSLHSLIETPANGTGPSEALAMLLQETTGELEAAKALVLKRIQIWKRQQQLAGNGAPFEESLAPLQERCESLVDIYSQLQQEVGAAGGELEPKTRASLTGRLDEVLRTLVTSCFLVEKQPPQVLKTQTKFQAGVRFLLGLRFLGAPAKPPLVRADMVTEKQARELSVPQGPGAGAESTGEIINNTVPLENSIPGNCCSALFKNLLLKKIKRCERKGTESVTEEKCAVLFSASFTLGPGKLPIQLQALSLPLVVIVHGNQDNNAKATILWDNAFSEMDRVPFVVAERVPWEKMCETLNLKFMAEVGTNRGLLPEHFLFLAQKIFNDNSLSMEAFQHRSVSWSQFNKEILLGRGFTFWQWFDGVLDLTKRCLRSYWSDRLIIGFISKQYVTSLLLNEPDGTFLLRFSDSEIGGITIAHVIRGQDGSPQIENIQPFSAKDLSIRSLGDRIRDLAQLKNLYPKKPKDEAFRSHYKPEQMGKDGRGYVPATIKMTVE

[4] = target: T1, STAT4 SH2 domain (human STAT4 amino acids 136 to 705); assay: Fluorescence polarization competitive inhibition of binding between 5-CF-GpYLPQNID and STAT4; conditions: for IC50: SD; for inhibition: 33 nM STAT4, 10 nM probe
Method: as §1

STAT4 = conditions: cited from earlier work; for IC50: read-out: IC50 against STAT4 in an ELISA
IFN-γ receptor peptide = target: T3, IFN-γ receptor peptide (Homo sapiens, UniProt P15260, also: 5-carboxyfluorescein, site not given here); assay: fluorescence polarization
T3 chain: G[pY]DKPHVL

EPO receptor peptide = EPO receptor peptide (Homo sapiens, UniProt P19235, phosphotyrosine, 5-carboxyfluorescein); assay: fluorescence polarization
gp130 peptide = gp130 peptide (Homo sapiens, UniProt P40189, phosphotyrosine, 5-carboxyfluorescein); assay: fluorescence polarization

CC[C@H](C)[C@H](NC(=O)[C@H](CC(N)=O)NC(=O)[C@H](CCC(N)=O)NC(=O)[C@@H]1CCCN1C(=O)[C@H](CC(C)C)NC(=O)[C@H](Cc1ccc(OP(=O)(O)O)cc1)NC(=O)CNC(=O)c1ccc2c(c1)C(=O)OC21c2ccc(O)cc2Oc2cc(O)ccc21)C(=O)N[C@@H](CC(=O)O)C(=O)O [5-CF-GpYLPQNID] (5FAM-G[pY]LPQNID-OH)
reduction in affinity for STAT4 by 8 h ([1]; 8 h after addition of labelled probe): no more than 35%
Kd ([1]; SD): 34 ± 4 nM
binding to STAT4 R598A (in words) (STAT4 R598A): almost completely abolished
Kd ([2]; FP, 10 nM labelled peptide, Figure S1, mean ± SD of 3 independent experiments, SD): 131 ± 6 nM
weaker affinity for STAT3 than for STAT4 ([2]; ratio of Kd values STAT3 vs STAT4): fourfold
Kd [3]: > 2560 nM

CC(C)C[C@H](NC(=O)[C@H](Cc1c[nH]c2ccccc12)NC(=O)[C@H](CCCCN)NC(=O)[C@H](CC(=O)O)NC(=O)[C@H](CC(C)C)NC(=O)[C@@H](NC(=O)[C@H](CC(C)C)NC(=O)[C@H](Cc1ccc(OP(=O)(O)O)cc1)NC(=O)[C@@H](NC(=O)[C@@H](N)CC(=O)O)[C@@H](C)O)C(C)C)C(=O)O [DTpYLVLDKWL] (H-DT[pY]LVLDKWL-OH)
IC50 [4]: 4170 ± 130 nM

MAGPMQSpTPLNGAKK
inhibition ([4]; read-out: Inhibition at 40 µM, 40 µM unlabelled peptide, n = 2): 2 ± 2%
inhibitory effect on STAT4 (in words) ([4]; up to 40 µM): no detectable inhibitory effect

CC(C)C[C@H](NC(=O)[C@H](Cc1ccc(OP(=O)(O)O)cc1)NC(=O)CNC(=O)c1ccc2c(c1)C(=O)OC21c2ccc(O)cc2Oc2cc(O)ccc21)C(=O)N[C@H](C(=O)N[C@@H](CC(C)C)C(=O)N[C@@H](CC(=O)O)C(=O)N[C@@H](CCCCN)C(=O)N[C@@H](Cc1c[nH]c2ccccc12)C(=O)O)C(C)C [5-CF-GpYLVLDKW]
Kd ([1]; SD): 267 ± 6 nM
fold lower affinity for STAT4 than 5-CF-GpYLPQNID ([1]; 10 nM labelled peptide): approximately 8 fold

CC[C@H](C)[C@H](NC(=O)[C@H](CC(N)=O)NC(=O)[C@H](CCC(N)=O)NC(=O)[C@@H]1CCCN1C(=O)[C@H](CC(C)C)NC(=O)[C@H](Cc1ccc(OP(=O)(O)O)cc1)NC(=O)CNC(C)=O)C(=O)N[C@@H](CC(=O)O)C(=O)O [Ac-GpYLPQNID] (Ac-G[pY]LPQNID-OH)
IC50 [4]: 490 ± 40 nM
extrapolated maximum inhibition at infinite peptide concentrations ([4]; extrapolated from inhibition curve): 98.4 ± 0.9%
inhibition at 40 µM ([4]; read-out: Inhibition at 40 µM): 96%

5-CF-GPMQSpTPLNG
binding to STAT4 (in words) ([1]; FP, 10 nM labelled peptide): did not bind

CC(C)C[C@H](NC(=O)[C@H](Cc1ccc(OP(=O)(O)O)cc1)NC(=O)CNC(=O)c1ccc2c(c1)C(=O)OC21c2ccc(O)cc2Oc2cc(O)ccc21)C(=O)N1CCC[C@H]1C(=O)N[C@@H](CCC(N)=O)C(=O)N[C@H](C(=O)N[C@H](C(N)=O)C(C)C)[C@@H](C)O [5-CF-GpYLPQTV-NH2] (5FAM-G[pY]LPQTV-NH2)
Kd ([1]; SD): 82 ± 2 nM
fold lower affinity for STAT4 than 5-CF-GpYLPQNID ([1]; 10 nM labelled peptide): 2.4 fold

CC(C)C[C@H](NC(=O)[C@@H](NC(=O)[C@H](Cc1c[nH]cn1)NC(=O)[C@@H]1CCCN1C(=O)[C@H](CCCCN)NC(=O)[C@H](CC(=O)O)NC(=O)[C@H](Cc1ccc(OP(=O)(O)O)cc1)NC(=O)CN)C(C)C)C(=O)O [GpYDKPHVL] (H-G[pY]DKPHVL-OH)
IC50 [4]: 31400 ± 6700 nM

GpYEEIP
inhibition ([4]; read-out: Inhibition at 40 µM, 40 µM unlabelled peptide (highest concentration tested)): 37 ± 4%

SHEGpYLPQNID
IC50 (STAT4): 390 nM

CC[C@H](C)[C@H](NC(=O)[C@H](CC(N)=O)NC(=O)[C@H](CO)NC(=O)[C@@H]1CCCN1C(=O)[C@H](CC(C)C)NC(=O)[C@H](Cc1ccc(OP(=O)(O)O)cc1)NC(=O)CNC(=O)c1ccc2c(c1)C(=O)OC21c2ccc(O)cc2Oc2cc(O)ccc21)C(=O)N[C@@H](CC(=O)O)C(=O)O [5-CF-GpYLPSNID] (5FAM-G[pY]LPSNID-OH)
Kd ([1]; SD): 160 ± 6 nM

CC(=O)N[C@@H](Cc1ccc(OP(=O)(O)O)cc1)C(=O)N[C@@H](CC(C)C)C(=O)N1CCC[C@H]1C(=O)N[C@@H](CCC(N)=O)C(=O)N[C@H](C(=O)N[C@H](C(N)=O)C(C)C)[C@@H](C)O [Ac-pYLPQTV-NH2]
IC50 [4]: 1270 ± 100 nM
fold less active than Ac-GpYLPQNID ([4]; ratio of IC50 values): 2.6 fold

CC[C@H](C)[C@H](NC(=O)[C@H](CCC(=O)O)NC(=O)[C@H](CCC(=O)O)NC(=O)[C@H](Cc1ccc(OP(=O)(O)O)cc1)NC(=O)CNC(=O)c1ccc2c(c1)C(=O)OC21c2ccc(O)cc2Oc2cc(O)ccc21)C(=O)N1CCC[C@H]1C(=O)O [5-CF-GpYEEIP] (5FAM-G[pY]EEIP-OH)
Kd [1]: > 2560 nM

CC[C@H](C)[C@H](NC(=O)[C@H](CC(C)C)NC(=O)[C@H](CC(=O)O)NC(=O)[C@H](CCC(N)=O)NC(=O)[C@H](Cc1c[nH]c2ccccc12)NC(=O)[C@@H]1CCCN1C(=O)[C@@H](NC(=O)[C@H](Cc1ccc(OP(=O)(O)O)cc1)NC(=O)CNC(=O)c1ccc2c(c1)C(=O)OC21c2ccc(O)cc2Oc2cc(O)ccc21)C(C)C)C(=O)O [5-CF-GpYVPWQDLI] (5FAM-G[pY]VPWQDLI-OH)
Kd ([1]; SD): 93 ± 8 nM
fold lower affinity for STAT4 than 5-CF-GpYLPQNID ([1]; 10 nM labelled peptide): 3 fold

SHEGpYLPWNID
fold less potent against STAT4 than SHEGpYLPQNID in an ELISA (STAT4): 2-3 fold
IC50 (STAT4): 930 nM

CC(C)C[C@H](NC(=O)[C@@H](NC(=O)[C@H](Cc1c[nH]cn1)NC(=O)[C@@H]1CCCN1C(=O)[C@H](CCCCN)NC(=O)[C@H](CC(=O)O)NC(=O)[C@H](Cc1ccc(OP(=O)(O)O)cc1)NC(=O)CNC(=O)c1ccc2c(c1)C(=O)OC21c2ccc(O)cc2Oc2cc(O)ccc21)C(C)C)C(=O)O [5-CF-GpYDKPHVL] (5FAM-G[pY]DKPHVL-OH)
Kd ([1]; SD): 1230 ± 284 nM

B1: STAT4 SH2 (protein)
chain: LPLWIDGYVMGFVSKEKERLLLKDKMPGTFLLRFSESHLGGITFTWVDHSESGEVRFHSVEPYNKGRLSALPFADILRDYKVIMAENIPENPLKYLYPDIPK
Kd (IFN-γ receptor peptide): 1230 nM
Kd (EPO receptor peptide): 267 nM
Kd (gp130 peptide): 82 nM
